From ChEMBL document CHEMBL5465560, “Selectivity Literature for EUbOPEN Chemogenomic Library” (2024)
Each block holds one compound with its values, some of them ahead of it.

Key:
[1] = molecular target: Muscarinic acetylcholine receptor M3 (Homo sapiens, UniProt P20309); assay: Selectivity interaction (GPCR panel (PDSP screen)) EUB0001079a CHRM3; conditions: at 10 µM
[2] = molecular target: Platelet-derived growth factor receptor alpha (Homo sapiens, UniProt P16234); assay: Selectivity interaction (Millipore kinase profiler) EUB0000124b PDGFRA; conditions: at 10 µM
Platelet-derived growth factor receptor alpha, sequence (P16234 whole entry): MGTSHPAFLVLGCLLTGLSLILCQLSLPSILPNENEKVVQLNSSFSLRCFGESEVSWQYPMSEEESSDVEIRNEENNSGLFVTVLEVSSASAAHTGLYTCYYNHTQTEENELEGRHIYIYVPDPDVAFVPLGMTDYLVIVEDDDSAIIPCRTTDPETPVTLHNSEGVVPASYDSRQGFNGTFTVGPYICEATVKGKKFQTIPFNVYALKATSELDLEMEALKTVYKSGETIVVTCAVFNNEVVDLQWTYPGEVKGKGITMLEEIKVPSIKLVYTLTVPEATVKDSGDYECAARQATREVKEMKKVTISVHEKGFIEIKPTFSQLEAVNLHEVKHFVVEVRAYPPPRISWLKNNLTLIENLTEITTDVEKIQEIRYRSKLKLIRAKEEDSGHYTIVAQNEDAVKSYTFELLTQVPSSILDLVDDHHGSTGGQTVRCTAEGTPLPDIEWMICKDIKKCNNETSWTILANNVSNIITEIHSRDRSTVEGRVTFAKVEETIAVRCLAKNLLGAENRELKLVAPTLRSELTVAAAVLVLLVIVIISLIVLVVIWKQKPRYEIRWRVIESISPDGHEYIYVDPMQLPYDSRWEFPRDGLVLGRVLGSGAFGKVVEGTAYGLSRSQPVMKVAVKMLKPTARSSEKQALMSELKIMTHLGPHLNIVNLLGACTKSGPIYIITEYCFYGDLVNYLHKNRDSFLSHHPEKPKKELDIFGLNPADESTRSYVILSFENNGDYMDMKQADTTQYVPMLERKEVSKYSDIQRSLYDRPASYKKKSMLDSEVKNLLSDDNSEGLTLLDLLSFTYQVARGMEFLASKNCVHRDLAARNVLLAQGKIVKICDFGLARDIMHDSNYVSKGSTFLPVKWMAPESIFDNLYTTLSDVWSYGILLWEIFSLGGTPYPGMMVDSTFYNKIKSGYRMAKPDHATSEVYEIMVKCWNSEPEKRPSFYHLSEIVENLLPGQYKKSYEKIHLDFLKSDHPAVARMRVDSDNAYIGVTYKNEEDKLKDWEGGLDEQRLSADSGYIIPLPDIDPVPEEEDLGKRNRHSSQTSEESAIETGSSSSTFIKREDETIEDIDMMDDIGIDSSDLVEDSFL

[3] = tested on: Proto-oncogene tyrosine-protein kinase receptor Ret (Homo sapiens), P07949 [V804M]; conditions: at 10 µM
Proto-oncogene tyrosine-protein kinase receptor Ret (Homo sapiens), P07949 [V804M], sequence (P07949 whole entry V804M): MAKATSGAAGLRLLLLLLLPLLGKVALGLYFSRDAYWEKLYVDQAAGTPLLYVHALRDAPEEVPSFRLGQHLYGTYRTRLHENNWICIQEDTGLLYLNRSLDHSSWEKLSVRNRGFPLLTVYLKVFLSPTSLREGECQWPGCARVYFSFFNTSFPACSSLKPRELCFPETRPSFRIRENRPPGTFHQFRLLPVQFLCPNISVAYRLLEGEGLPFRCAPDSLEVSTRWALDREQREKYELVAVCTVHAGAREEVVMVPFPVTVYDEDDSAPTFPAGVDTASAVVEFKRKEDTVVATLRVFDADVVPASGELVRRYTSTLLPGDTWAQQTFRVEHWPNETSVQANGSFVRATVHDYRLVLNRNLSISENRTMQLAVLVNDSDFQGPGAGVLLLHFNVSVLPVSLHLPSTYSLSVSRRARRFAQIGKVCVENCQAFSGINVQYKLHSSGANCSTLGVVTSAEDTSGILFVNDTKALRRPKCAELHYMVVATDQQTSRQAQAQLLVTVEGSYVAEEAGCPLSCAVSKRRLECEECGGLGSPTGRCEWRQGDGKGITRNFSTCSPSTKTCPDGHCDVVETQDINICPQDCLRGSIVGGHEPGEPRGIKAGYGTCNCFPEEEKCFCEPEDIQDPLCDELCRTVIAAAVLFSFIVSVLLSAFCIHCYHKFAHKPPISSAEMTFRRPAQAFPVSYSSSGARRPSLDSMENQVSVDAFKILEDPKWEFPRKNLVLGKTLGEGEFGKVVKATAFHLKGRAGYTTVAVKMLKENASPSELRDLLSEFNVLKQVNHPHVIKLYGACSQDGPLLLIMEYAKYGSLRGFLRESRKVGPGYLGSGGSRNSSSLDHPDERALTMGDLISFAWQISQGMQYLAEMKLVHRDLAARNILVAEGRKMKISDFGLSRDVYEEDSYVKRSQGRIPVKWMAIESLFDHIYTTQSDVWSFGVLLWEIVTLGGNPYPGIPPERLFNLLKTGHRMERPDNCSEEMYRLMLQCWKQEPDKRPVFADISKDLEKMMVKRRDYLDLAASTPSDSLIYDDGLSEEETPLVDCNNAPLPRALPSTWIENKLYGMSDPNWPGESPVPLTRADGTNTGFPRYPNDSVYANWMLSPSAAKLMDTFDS

[4] = molecular target: T1, Tyrosine-protein kinase Tec (Homo sapiens) (UniProt P42680); assay: Selectivity interaction (ActivX KiNativ screen (kinase selectivity in THP-1 cell lysates)) EUB0000639a TEC; type: subcellular; conditions: lysate, at 0.2 µM
T1 sequence (whole entry): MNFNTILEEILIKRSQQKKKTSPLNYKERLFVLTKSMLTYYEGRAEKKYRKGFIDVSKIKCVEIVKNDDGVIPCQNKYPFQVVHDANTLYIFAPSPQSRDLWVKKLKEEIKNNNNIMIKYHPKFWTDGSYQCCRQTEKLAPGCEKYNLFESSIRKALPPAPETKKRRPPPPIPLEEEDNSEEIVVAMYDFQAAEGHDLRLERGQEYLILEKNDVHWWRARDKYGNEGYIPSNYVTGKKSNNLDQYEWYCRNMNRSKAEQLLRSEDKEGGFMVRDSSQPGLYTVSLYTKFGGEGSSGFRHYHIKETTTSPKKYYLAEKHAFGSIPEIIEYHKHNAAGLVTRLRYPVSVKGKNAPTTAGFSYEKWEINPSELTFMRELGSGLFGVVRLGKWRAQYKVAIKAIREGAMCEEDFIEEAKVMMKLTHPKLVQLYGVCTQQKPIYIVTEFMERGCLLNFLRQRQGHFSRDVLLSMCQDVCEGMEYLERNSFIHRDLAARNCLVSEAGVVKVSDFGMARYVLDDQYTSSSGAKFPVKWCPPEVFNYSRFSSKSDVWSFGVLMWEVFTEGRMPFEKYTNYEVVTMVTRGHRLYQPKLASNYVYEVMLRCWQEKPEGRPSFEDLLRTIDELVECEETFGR

[5] = molecular target: T2, Homeodomain-interacting protein kinase 4 (Homo sapiens) (UniProt Q8NE63); assay: Selectivity interaction (Kinase panel (Invitrogen)) EUB0000639a HIPK4; conditions: at 200 nM
T2 sequence (whole entry): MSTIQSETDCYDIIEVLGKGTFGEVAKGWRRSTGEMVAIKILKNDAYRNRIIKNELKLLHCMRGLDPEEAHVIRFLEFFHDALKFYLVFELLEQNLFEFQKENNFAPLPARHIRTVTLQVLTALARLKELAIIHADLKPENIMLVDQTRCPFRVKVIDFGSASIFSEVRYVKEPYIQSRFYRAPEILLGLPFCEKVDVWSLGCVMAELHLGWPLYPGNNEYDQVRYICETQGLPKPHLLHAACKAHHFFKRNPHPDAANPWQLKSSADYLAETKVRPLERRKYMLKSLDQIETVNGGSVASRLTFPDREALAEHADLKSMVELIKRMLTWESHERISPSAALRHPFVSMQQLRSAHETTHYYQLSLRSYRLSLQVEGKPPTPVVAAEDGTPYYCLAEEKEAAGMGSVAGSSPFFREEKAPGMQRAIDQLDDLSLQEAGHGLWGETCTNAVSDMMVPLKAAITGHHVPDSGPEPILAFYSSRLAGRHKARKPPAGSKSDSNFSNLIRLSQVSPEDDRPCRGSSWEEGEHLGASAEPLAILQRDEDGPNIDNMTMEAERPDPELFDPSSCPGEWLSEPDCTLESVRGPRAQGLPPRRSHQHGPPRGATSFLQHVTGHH

[6] = molecular target: Activin receptor type-2A (Homo sapiens) (UniProt P27037); assay: Selectivity interaction (ProQinase) EUB0000171b ACVR2A
Activin receptor type-2A (Homo sapiens), sequence (P27037 whole entry): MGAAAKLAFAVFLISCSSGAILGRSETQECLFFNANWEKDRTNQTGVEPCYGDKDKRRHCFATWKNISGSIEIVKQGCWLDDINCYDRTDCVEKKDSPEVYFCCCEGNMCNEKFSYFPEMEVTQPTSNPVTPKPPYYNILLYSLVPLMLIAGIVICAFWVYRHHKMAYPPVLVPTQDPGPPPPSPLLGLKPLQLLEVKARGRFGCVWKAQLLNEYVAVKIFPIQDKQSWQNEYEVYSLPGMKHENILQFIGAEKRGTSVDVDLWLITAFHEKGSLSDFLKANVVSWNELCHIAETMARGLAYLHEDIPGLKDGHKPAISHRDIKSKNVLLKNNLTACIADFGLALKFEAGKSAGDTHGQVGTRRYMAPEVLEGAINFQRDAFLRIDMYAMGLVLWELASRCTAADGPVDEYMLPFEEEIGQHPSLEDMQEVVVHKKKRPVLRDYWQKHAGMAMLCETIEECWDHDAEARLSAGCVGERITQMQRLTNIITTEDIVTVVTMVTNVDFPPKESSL

[7] = molecular target: Sodium-dependent noradrenaline transporter (Homo sapiens, UniProt P23975); assay: Selectivity interaction (Safety Panel 44tm (Eurofins)) EUB0000162b SLC6A2; conditions: at 10 µM
Sodium-dependent noradrenaline transporter, sequence (P23975 whole entry): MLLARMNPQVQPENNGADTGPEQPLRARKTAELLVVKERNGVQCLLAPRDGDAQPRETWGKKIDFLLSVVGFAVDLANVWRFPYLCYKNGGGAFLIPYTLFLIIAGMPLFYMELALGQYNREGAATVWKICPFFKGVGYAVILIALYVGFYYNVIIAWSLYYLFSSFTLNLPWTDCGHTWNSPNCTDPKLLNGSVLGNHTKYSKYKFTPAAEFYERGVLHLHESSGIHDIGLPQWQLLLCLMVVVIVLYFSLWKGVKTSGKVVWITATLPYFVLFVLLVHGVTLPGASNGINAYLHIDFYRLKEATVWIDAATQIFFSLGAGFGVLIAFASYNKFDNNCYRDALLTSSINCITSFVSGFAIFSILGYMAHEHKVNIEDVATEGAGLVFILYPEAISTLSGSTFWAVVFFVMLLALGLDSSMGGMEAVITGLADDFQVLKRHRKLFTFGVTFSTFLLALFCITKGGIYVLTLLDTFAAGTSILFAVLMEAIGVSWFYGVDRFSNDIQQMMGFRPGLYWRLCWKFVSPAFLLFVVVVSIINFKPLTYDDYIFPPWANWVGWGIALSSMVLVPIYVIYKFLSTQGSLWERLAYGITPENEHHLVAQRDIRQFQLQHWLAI

[8] = molecular target: T3, Prostaglandin G/H synthase 2 (Homo sapiens) (UniProt P35354); assay: Selectivity interaction (Panel of kinases, GPCRs, ion channels and transporters (enzymatic assay)) EUB0000266bCl PTGS2
T3 sequence (whole entry): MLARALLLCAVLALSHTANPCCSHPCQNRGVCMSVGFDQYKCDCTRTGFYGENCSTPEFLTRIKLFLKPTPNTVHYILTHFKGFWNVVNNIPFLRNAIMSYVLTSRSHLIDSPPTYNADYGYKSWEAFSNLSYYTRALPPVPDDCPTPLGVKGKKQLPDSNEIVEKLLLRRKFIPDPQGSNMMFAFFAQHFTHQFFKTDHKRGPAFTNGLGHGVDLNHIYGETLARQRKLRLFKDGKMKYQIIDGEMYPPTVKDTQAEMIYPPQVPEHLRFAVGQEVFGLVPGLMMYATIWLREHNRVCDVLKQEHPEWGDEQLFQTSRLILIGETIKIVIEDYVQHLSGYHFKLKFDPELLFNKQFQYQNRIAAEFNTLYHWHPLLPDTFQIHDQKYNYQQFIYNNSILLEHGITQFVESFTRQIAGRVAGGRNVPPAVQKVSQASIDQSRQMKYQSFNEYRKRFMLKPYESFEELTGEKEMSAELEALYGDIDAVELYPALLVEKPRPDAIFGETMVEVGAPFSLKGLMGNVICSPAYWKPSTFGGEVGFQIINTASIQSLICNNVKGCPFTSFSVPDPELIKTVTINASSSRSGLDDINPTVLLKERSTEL

[9] = molecular target: Protein kinase C delta type (Homo sapiens) (UniProt Q05655); assay: Selectivity interaction (Kinase panel (Z-LYTE Assay)) EUB0001632a PRKCD; conditions: at 10 µM
Protein kinase C delta type (Homo sapiens), sequence (Q05655 whole entry, looked up): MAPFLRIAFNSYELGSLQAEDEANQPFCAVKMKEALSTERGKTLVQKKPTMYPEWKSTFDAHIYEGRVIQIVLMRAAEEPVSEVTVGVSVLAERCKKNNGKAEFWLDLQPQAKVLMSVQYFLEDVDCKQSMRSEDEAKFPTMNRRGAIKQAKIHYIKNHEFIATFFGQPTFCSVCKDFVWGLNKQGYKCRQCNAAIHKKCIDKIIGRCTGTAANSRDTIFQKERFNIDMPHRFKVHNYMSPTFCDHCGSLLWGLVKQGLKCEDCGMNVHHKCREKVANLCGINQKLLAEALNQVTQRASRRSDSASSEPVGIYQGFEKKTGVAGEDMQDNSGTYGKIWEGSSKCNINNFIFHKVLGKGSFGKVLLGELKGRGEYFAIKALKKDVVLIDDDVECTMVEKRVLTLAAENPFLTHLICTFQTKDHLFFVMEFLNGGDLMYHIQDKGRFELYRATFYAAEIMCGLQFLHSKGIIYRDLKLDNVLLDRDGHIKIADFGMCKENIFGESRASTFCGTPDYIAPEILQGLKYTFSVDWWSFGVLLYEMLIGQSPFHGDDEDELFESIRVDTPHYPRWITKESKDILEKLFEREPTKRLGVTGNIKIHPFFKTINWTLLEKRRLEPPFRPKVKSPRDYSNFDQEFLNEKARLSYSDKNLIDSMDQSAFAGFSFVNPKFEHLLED

[10] = molecular target: Serine/threonine-protein kinase NIM1 (Homo sapiens, UniProt Q8IY84); assay: Selectivity interaction (KinomeScan (DiscoverX)) EUB0000695a NIM1K; conditions: at 100 nM
Serine/threonine-protein kinase NIM1, sequence (Q8IY84 whole entry): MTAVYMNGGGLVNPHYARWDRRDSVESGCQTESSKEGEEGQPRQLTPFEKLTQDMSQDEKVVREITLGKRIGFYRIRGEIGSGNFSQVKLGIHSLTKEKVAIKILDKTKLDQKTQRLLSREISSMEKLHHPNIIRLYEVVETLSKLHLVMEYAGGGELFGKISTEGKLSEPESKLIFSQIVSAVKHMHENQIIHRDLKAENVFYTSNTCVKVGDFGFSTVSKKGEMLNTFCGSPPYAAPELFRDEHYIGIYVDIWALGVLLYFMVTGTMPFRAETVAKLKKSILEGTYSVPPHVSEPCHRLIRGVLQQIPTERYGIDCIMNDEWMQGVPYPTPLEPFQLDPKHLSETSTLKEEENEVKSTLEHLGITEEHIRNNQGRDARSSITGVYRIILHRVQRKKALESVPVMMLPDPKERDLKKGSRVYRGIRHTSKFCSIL

Muscarinic acetylcholine receptor M3, sequence (P20309 whole entry, looked up): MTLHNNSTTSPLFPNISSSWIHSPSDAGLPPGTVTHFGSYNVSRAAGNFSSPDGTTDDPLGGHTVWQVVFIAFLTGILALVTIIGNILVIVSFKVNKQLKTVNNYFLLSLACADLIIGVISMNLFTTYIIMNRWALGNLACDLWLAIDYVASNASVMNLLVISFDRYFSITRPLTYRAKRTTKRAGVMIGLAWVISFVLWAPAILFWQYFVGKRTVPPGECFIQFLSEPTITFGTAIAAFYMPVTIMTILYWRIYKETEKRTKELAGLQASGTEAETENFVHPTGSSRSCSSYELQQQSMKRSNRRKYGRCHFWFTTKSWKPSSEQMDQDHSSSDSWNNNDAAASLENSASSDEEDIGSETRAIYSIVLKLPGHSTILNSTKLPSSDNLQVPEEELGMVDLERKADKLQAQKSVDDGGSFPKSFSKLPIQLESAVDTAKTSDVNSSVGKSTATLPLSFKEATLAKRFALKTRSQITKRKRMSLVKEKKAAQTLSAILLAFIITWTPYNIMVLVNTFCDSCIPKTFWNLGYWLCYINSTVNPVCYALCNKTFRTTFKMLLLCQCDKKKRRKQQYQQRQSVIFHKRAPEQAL

% of control [2]: 111%
SMILES: CC(=O)Nc1cccc(-n2c(=O)n(C3CC3)c(=O)c3c(Nc4ccc(I)cc4F)n(C)c(=O)c(C)c32)c1

% of inhibition [4]: -52.3% | % of inhibition [5]: 5.27%
SMILES: CC[C@@H]1[C@H](F)C(=O)N[C@@H]1COc1nccc2cc(C(N)=O)c(OC)cc12 [ZIMLOVISERTIB]

% of control ([6]; at 1 µM): 81% | % of control ([6]; at 5 µM): 80%
SMILES: C=CC(=O)Nc1cccc(C(=O)Nc2ccc(Nc3cc(-c4[nH]c(SC)nc4C)ccn3)cc2)c1

pXC50 [8]: < 4 M
SMILES: CCn1c(-c2nc3cc(C(=O)N4CCCC(N)C4)ccc3n2C)cc2ccccc21 (stereo unspecified)

% of control [9]: -0.676%
SMILES: Cn1cc(-n2cnc3c(NCc4nc5cc(Cl)c(Cl)cc5[nH]4)nc(N4CCOCC4)nc32)cn1

Second part, the compound before the results:

SMILES: Nc1cnc(N2CCc3cc(S(=O)(=O)Nc4c(F)cc(Cl)cc4F)cc(N4CCCC4=O)c32)nc1 [TP-020n]
% of inhibition [1]: -18%

SMILES: Cc1cc([C@@H](C)Nc2ccccc2C(=O)O)c2nc(N3CCOCC3)cc(=O)n2c1 [AZD-6482]
% of control [3]: 100%

SMILES: CN(C)C(=O)Cn1cc(-c2ccc(-c3cncc4ccccc34)cc2)cn1
% of control [7]: 89%

SMILES: Cc1cc(F)c(C(=O)Nc2cccc(-c3nncn3C(C)C)n2)cc1-n1cnc(C2CC2)c1
% of control [10]: 84%
